Laboratory results from ChEMBL document CHEMBL1201862, “PubChem BioAssay data set” (2004).
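These data come from cells grown in 96-well plates and exposed to compound for 48 hours at five concentrations. Abbreviation: GI50, concentration required for 50% inhibition of growth.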 Active and inactive are the calls of the source. No stated cut-off is given here; in the data, active = GI50 up to about 1.1 µM and inactive = higher.

What was measured:
Assay in all cases: NCI tumour cell line growth inhibition, 48 h
Malme-3M = test system: Malme-3M
UACC-257 = test system: UACC-257
HCT-116 = test system: HCT-116
SW-620 = test system: SW-620
SK-MEL-2 = test system: SK-MEL-2
HL-60 = test system: HL-60
NCI-H226 = test system: NCI-H226
786-0 = test system: 786-0
OVCAR-8 = test system: OVCAR-8
U-251 = test system: U-251
A498 = test system: A498
HCT-15 = test system: HCT-15
SF-539 = test system: SF-539
HOP-62 = test system: HOP-62
OVCAR-4 = test system: OVCAR-4
RXF 393 = test system: RXF 393
OVCAR-5 = test system: OVCAR-5
SF-295 = test system: SF-295

Row | Structure (SMILES) | GI50 (Malme-3M) | GI50 (UACC-257) | GI50 (HCT-116) | GI50 (SW-620) | GI50 (SK-MEL-2) | GI50 (HL-60) | GI50 (NCI-H226) | GI50 (786-0) | GI50 (OVCAR-8) | GI50 (U-251) | GI50 (A498) | GI50 (HCT-15) [µM] | GI50 (SF-539) | GI50 (HOP-62) | GI50 (OVCAR-4) | GI50 (RXF 393) | GI50 (OVCAR-5) | GI50 (SF-295)
1 | C1CCOC2(CCC3(CC2)OCCCCO3)OC1 | > 100 µM (inactive) | > 100 µM (inactive) | > 100 µM (inactive) | > 100 µM (inactive) | > 100 µM (inactive) | > 100 µM (inactive) | > 100 µM (inactive) | > 100 µM (inactive) | > 100 µM (inactive) | > 100 µM (inactive) | > 100 µM (inactive) | > 100 | > 100 µM (inactive) | > 100 µM (inactive) | > 100 µM (inactive) | > 100 µM (inactive) | – | –
2 | CC1=C(C(=O)Nc2cc(F)c(F)cc2F)C(c2ccc3c(c2)OCO3)C(C(=O)Nc2cc(F)c(F)cc2F)=C(C)N1 | 23.3 µM (inactive) | 25.9 µM (inactive) | – | 33.5 µM (inactive) | 18 µM (inactive) | 13.8 µM (inactive) | 23.9 µM (inactive) | 18.3 µM (inactive) | 31 µM (inactive) | 27.2 µM (inactive) | 21 µM (inactive) | – | 27.5 µM (inactive) | 16.8 µM (inactive) | 19.6 µM (inactive) | 11.5 µM (inactive) | 19.9 µM (inactive) | 21.9 µM (inactive)
3 | COC(=O)C1=C(C(=O)OC)C2C=CC1C1C(Cl)=C(Cl)C21 (centres undefined) | > 100 µM (inactive) | > 100 µM (inactive) | – | > 100 µM (inactive) | > 100 µM (inactive) | > 10 µM (inactive) | – | > 100 µM (inactive) | > 100 µM (inactive) | > 100 µM (inactive) | – | > 100 | > 100 µM (inactive) | > 100 µM (inactive) | > 100 µM (inactive) | > 100 µM (inactive) | > 100 µM (inactive) | > 100 µM (inactive)
4 | CC(=O)O[C@]1(C)OC(=O)[C@@H](CC(C)C)N1[N+](=O)[O-] | > 100 µM (inactive) | > 100 µM (inactive) | > 100 µM (inactive) | > 100 µM (inactive) | > 100 µM (inactive) | > 100 µM (inactive) | > 100 µM (inactive) | > 100 µM (inactive) | > 100 µM (inactive) | > 100 µM (inactive) | > 100 µM (inactive) | > 100 | > 100 µM (inactive) | > 100 µM (inactive) | > 100 µM (inactive) | 60.7 µM (inactive) | > 100 µM (inactive) | > 100 µM (inactive)
5 | COc1ccc(C2S/C(=C\c3cccc([N+](=O)[O-])c3)C(=O)N2NC(=O)Cc2ccccc2)cc1 (centres undefined) | > 100 µM (inactive) | > 100 µM (inactive) | > 100 µM (inactive) | > 100 µM (inactive) | > 100 µM (inactive) | > 100 µM (inactive) | > 100 µM (inactive) | > 100 µM (inactive) | > 100 µM (inactive) | > 100 µM (inactive) | > 100 µM (inactive) | > 100 | > 100 µM (inactive) | > 100 µM (inactive) | > 100 µM (inactive) | > 100 µM (inactive) | > 100 µM (inactive) | > 100 µM (inactive)
6 | [O-][S+]1Nc2cccc(C(F)(F)F)c2S1 (centres undefined) | 51.2 µM (inactive) | 32.1 µM (inactive) | 27.3 µM (inactive) | 9.91 µM (inactive) | 24.3 µM (inactive) | 7.66 µM (inactive) | 73.3 µM (inactive) | 42.1 µM (inactive) | 54.8 µM (inactive) | 31.3 µM (inactive) | 22.9 µM (inactive) | 18.6 | 58.6 µM (inactive) | 49.8 µM (inactive) | 46.7 µM (inactive) | 22.5 µM (inactive) | 69.8 µM (inactive) | 45.4 µM (inactive)
7 | O=C(CCC(=O)Nc1cccc(C(F)(F)F)c1)CC(=O)c1ccc2ccccc2c1 | > 100 µM (inactive) | > 100 µM (inactive) | > 100 µM (inactive) | > 100 µM (inactive) | > 100 µM (inactive) | > 100 µM (inactive) | > 100 µM (inactive) | > 100 µM (inactive) | > 100 µM (inactive) | > 100 µM (inactive) | > 100 µM (inactive) | > 100 | > 100 µM (inactive) | – | > 100 µM (inactive) | – | > 100 µM (inactive) | > 100 µM (inactive)
8 | CC(=O)Nc1ccc(-c2nnc(SCC(=O)Nc3ccccc3[N+](=O)[O-])o2)cc1 | > 100 µM (inactive) | > 100 µM (inactive) | > 100 µM (inactive) | > 100 µM (inactive) | > 100 µM (inactive) | 52 µM (inactive) | > 100 µM (inactive) | > 100 µM (inactive) | > 100 µM (inactive) | > 100 µM (inactive) | – | > 100 | 34.6 µM (inactive) | > 100 µM (inactive) | 73.1 µM (inactive) | > 100 µM (inactive) | > 100 µM (inactive) | 98.6 µM (inactive)
9 | COc1c(C(=O)O)oc2c(OC)cccc12 | > 100 µM (inactive) | > 100 µM (inactive) | > 100 µM (inactive) | > 100 µM (inactive) | > 100 µM (inactive) | > 100 µM (inactive) | > 100 µM (inactive) | > 100 µM (inactive) | > 100 µM (inactive) | > 100 µM (inactive) | > 100 µM (inactive) | > 100 | > 100 µM (inactive) | > 100 µM (inactive) | > 100 µM (inactive) | – | > 100 µM (inactive) | > 100 µM (inactive)
10 | CC1(C)OC(=O)C(=C2CC(c3ccccc3)c3ccccc32)C(=O)O1 (centres undefined) | > 100 µM (inactive) | > 100 µM (inactive) | > 100 µM (inactive) | > 100 µM (inactive) | – | > 100 µM (inactive) | > 100 µM (inactive) | > 100 µM (inactive) | > 100 µM (inactive) | > 100 µM (inactive) | > 100 µM (inactive) | > 100 | > 100 µM (inactive) | > 100 µM (inactive) | > 100 µM (inactive) | > 100 µM (inactive) | > 100 µM (inactive) | > 100 µM (inactive)
11 | O=[N+]([O-])c1ccc(C2N3CCCCC3[C@@H]3c4[nH]c5ccccc5c4CCN23)cc1 (some centres undefined) | < 0.01 µM (active) | 16.5 µM (inactive) | 6.44 µM (inactive) | 22.6 µM (inactive) | 16.9 µM (inactive) | 80.2 µM (inactive) | – | 28.1 µM (inactive) | 30.4 µM (inactive) | 20.2 µM (inactive) | 11.3 µM (inactive) | 14.3 | 13.3 µM (inactive) | 19.5 µM (inactive) | 22.6 µM (inactive) | 4.59 µM (inactive) | 25.9 µM (inactive) | 26.1 µM (inactive)
12 | CC1=C(/C(C)=N/NC(=O)C(N)=O)Sc2ccccc2N1 | > 100 µM (inactive) | > 100 µM (inactive) | 10 µM (inactive) | > 100 µM (inactive) | > 100 µM (inactive) | > 100 µM (inactive) | – | > 100 µM (inactive) | > 100 µM (inactive) | > 100 µM (inactive) | > 100 µM (inactive) | > 100 | > 100 µM (inactive) | > 100 µM (inactive) | > 100 µM (inactive) | > 100 µM (inactive) | > 100 µM (inactive) | > 100 µM (inactive)
13 | O=C(N/C(=C\c1ccc(F)cc1)c1nc2ccccc2[nH]1)c1ccccc1 | > 100 µM (inactive) | > 100 µM (inactive) | > 100 µM (inactive) | > 100 µM (inactive) | > 100 µM (inactive) | – | > 100 µM (inactive) | > 100 µM (inactive) | > 100 µM (inactive) | > 100 µM (inactive) | > 100 µM (inactive) | > 100 | > 100 µM (inactive) | – | > 100 µM (inactive) | > 100 µM (inactive) | > 100 µM (inactive) | –
14 | CCOc1ccc(/N=C\c2cc(OC)c(OC)c(OC)c2)cc1 | > 100 µM (inactive) | > 100 µM (inactive) | > 100 µM (inactive) | 14.9 µM (inactive) | > 100 µM (inactive) | > 100 µM (inactive) | – | > 100 µM (inactive) | > 100 µM (inactive) | > 100 µM (inactive) | > 100 µM (inactive) | 32.4 | > 100 µM (inactive) | > 100 µM (inactive) | > 100 µM (inactive) | 2.08 µM (inactive) | > 100 µM (inactive) | > 100 µM (inactive)
15 | O=C(CCc1ccccc1)NS(=O)(=O)c1ccccc1 | > 100 µM (inactive) | > 100 µM (inactive) | > 100 µM (inactive) | > 100 µM (inactive) | > 100 µM (inactive) | > 100 µM (inactive) | > 100 µM (inactive) | > 100 µM (inactive) | > 100 µM (inactive) | > 100 µM (inactive) | > 100 µM (inactive) | – | > 100 µM (inactive) | > 100 µM (inactive) | > 100 µM (inactive) | > 100 µM (inactive) | > 100 µM (inactive) | > 100 µM (inactive)
16 | COc1cc(C(=O)C/C(CCC(=O)Nc2ccccc2[N+](=O)[O-])=N\NC(N)=O)ccc1O | > 100 µM (inactive) | > 100 µM (inactive) | > 100 µM (inactive) | > 100 µM (inactive) | > 100 µM (inactive) | > 100 µM (inactive) | > 100 µM (inactive) | > 100 µM (inactive) | > 100 µM (inactive) | > 100 µM (inactive) | > 100 µM (inactive) | > 100 | > 100 µM (inactive) | > 100 µM (inactive) | – | > 100 µM (inactive) | > 100 µM (inactive) | > 100 µM (inactive)
17 | COc1ccc(C2Cc3cc(OC)c(OC)c(OC)c3C2)cc1 (centres undefined) | 22.8 µM (inactive) | 23.2 µM (inactive) | 41 µM (inactive) | 29.4 µM (inactive) | 30.6 µM (inactive) | – | 34.9 µM (inactive) | 61.4 µM (inactive) | 48.5 µM (inactive) | 73.5 µM (inactive) | 28.6 µM (inactive) | 38.6 | 64.7 µM (inactive) | 97.5 µM (inactive) | 59.6 µM (inactive) | – | 90.4 µM (inactive) | 41.1 µM (inactive)
